Assay results from ChEMBL document CHEMBL4052749, “Selective inhibitors of human mPGES-1 from structure-based computational screening” (Bioorg Med Chem Lett, 2017).

Assays:
[1] = test system: COX1/COX2 (ovine COX1, human COX2; the isoform is not stated for the values); assay: Inhibition of ovine COX1/human COX2 assessed as reduction in PGH2 production by measuring PGF2alpha at 100 uM using PG-acetylcholinesterase as tracer by colorimetry; conditions: ovine COX1/human COX2 enzymes
Prostaglandin E synthase = target: T1, Prostaglandin E synthase (Homo sapiens, UniProt O14684); assay: Inhibition of human mPGES-1 expressed in 293-F cells using PGH2 as substrate preincubated for 15 mins followed by substrate addition measured after 30 secs enzyme immunoassay; format: cell-based
T1 sequence (O14684 whole entry): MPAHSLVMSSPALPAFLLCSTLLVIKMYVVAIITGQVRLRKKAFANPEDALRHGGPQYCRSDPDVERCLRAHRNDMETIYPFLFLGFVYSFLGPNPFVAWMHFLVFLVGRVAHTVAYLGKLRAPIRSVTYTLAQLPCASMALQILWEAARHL

[2] = target: T2, Prostaglandin E synthase (Homo sapiens) (UniProt O14684); assay: Inhibition of human mPGES-1 expressed in 293-F cells using PGH2 as substrate preincubated for 15 mins followed by substrate addition measured after 30 secs at 10 uM by enzyme immunoassay
T2 sequence (whole entry): T1 sequence (O14684 whole entry)

[3] = Inhibition of ovine COX1/human COX2 assessed as reduction in PGH2 production by measuring PGF2alpha using PG-acetylcholinesterase as tracer by colorimetry

O=[N+]([O-])c1ccc(N/N=C(\C=C\c2ccc3c(c2)OCO3)c2cnc(Nc3ccc(Cl)c(Cl)c3)s2)c([N+](=O)[O-])c1
inhibition at 100 µM [1]: 8%
IC50 (Prostaglandin E synthase): 284 nM
inhibition [2]: 98%

O=C(Nc1ccccc1)c1cc(S(=O)(=O)Nc2n[nH]c(=O)[nH]2)c(SSc2cc(Cl)c(C(=O)Nc3ccccc3)cc2S(=O)(=O)Nc2n[nH]c(=O)[nH]2)cc1Cl
inhibition [2]: 59%

CCCCCCCCCCCCc1ccc(NC2=C(Cl)C(=O)C(Nc3ccc(CCCCCCCCCCCC)cc3)=C(Cl)C2=O)cc1
inhibition [2]: 49%

Cc1ccc(NC(=S)N2CCC(CCCC3CCN(C(=S)Nc4ccc(C)cc4C)CC3)CC2)c(C)c1
inhibition [2]: 49%

O=C(Nc1ccc(Cl)cc1)Nc1nnc(-c2cccc(-c3nnc(NC(=O)Nc4ccc(Cl)cc4)o3)c2)o1
inhibition [2]: 59%

COc1ccc(C(=O)COC(=O)[C@H](C[Se][Se]C[C@H](NC(=O)c2ccc(Br)cc2F)C(=O)OCC(=O)c2ccc(OC)cc2)NC(=O)c2ccc(Br)cc2F)cc1
inhibition [2]: 65%

CCCCOc1ccc(NC(=S)Nc2ccc(N(C)C)cc2)cc1 [THIAMBUTOSINE]
inhibition at 100 µM [1]: 1%
IC50 (Prostaglandin E synthase): 370 nM
inhibition [2]: 99%

CC[n+]1ccc(Nc2ccc(NC(=O)c3ccc(Nc4cc[n+](CC)c5ccc([N+](=O)[O-])cc45)cc3)cc2)cc1
inhibition [2]: 70%

CCOC(=O)CC(=O)c1cn(CCCOC(=O)CCCCCCCCC(=O)OCCCn2cc(C(=O)CC(=O)OCC)c(=O)[nH]c2=O)c(=O)[nH]c1=O
inhibition [2]: 48%

C[C@@H]1c2c(cc(OC(=O)c3cccc(S(=O)(=O)F)c3)nc2OC(=O)c2cccc(S(=O)(=O)F)c2)C(=O)N1Cc1ccccc1
inhibition [2]: 15%

Cc1ccccc1NC(=O)/C(Cc1nc2ccc(C(=O)c3ccccc3)cc2nc1O)=N\NC(=O)c1ccncc1
inhibition at 100 µM [1]: 0%
IC50 (Prostaglandin E synthase): 664 nM
inhibition [2]: 94%

O=C(Nc1cccc2c(OC(=O)C(Cl)Cl)c(/C=C/c3ccc(S(=O)(=O)Nc4nccs4)cc3)cc(/N=N/c3ccc(S(=O)(=O)Nc4nccs4)cc3)c12)C(Cl)Cl
inhibition [2]: 10%

Cc1noc(NS(=O)(=O)c2ccc(/N=N/c3cc(/N=N/c4ccc(S(=O)(=O)Nc5onc(C)c5C)cc4)c4c(NC(=O)C(Cl)Cl)cccc4c3OC(=O)C(Cl)Cl)cc2)c1C
inhibition [2]: 43%

O=[N+]([O-])c1ccc(CSc2ncc(Br)c(SCc3ccc([N+](=O)[O-])cc3)n2)cc1
inhibition [2]: 26%

CC1=NN(C(=O)CC(=O)Nc2ccccc2C)C(=O)[C@@H]1/C=N/c1ccc(S(=O)(=O)c2ccc(/N=N/[C@@H]3C(=O)N(C(=O)CC(=O)Nc4ccccc4C)N=C3C)cc2)cc1
inhibition [2]: 36%

O=C(OCCN(CCOC(=O)c1ccccc1)C(=O)N(CCOC(=O)c1ccccc1)CCOC(=O)c1ccccc1)c1ccccc1
inhibition [2]: 46%

CC(=O)N[C@H]1[C@@H](OCc2ccccc2)O[C@H](CO)[C@H](O)[C@@H]1C[C@H](C)C(=O)N[C@@H](C)C(=O)N[C@H](CCC(=O)OCCNc1c2ccccc2nc2cccc([N+](=O)[O-])c12)C(N)=O
inhibition [2]: 37%

Cc1ccc(NC(=O)c2cc(S(=O)(=O)Nc3n[nH]c(=O)[nH]3)c(SSc3cc(Cl)c(C(=O)Nc4ccc(C)cc4)cc3S(=O)(=O)Nc3n[nH]c(=O)[nH]3)cc2Cl)cc1
inhibition [2]: 47%

C[n+]1ccc(Nc2ccc(NC(=O)c3ccc(Nc4cc[n+](C)c5ccc(N)cc45)cc3N)cc2)cc1
inhibition [2]: 30%

CC(C)C(=O)OCC(C)(C)[C@H](OC(=O)COc1ccc(Cl)cc1Cl)C(C)C
inhibition [2]: 69%

O=C(C(=O)c1ccc(/N=C/c2ccc(N(CCCl)CCCl)cc2)cc1)c1ccc(/N=C/c2ccc(N(CCCl)CCCl)cc2)cc1
inhibition [2]: 28%

CN(Cc1ccc(Cl)cc1)C(=O)NCCCCCCNC(=O)N(C)Cc1ccc(Cl)cc1
inhibition [2]: 64%

Cn1c2ccccc2c(=S)c2cc(NC(=O)CCCCC(=O)Nc3ccc4c(c3)c(=S)c3ccccc3n4C)ccc21
inhibition [2]: 25%

O=P1(N(CCCl)CCCl)N(Cc2ccc(Cl)c(Cl)c2)CCCN1Cc1ccc(Cl)c(Cl)c1
inhibition [2]: 65%

O=c1oc2ccccc2n1P(=O)(N1CCOCC1)N1CCOCC1
inhibition [2]: 29%

N#C[C@@H](c1ccccc1)N(CCCCCCN(C(=O)c1ccccc1)[C@@H](C#N)c1ccccc1)C(=O)c1ccccc1
inhibition [2]: 40 to 44%

COc1ccc(N(Nc2ccc(Br)cc2)c2ccccc2N(Nc2ccc(Br)cc2)c2ccccc2OC)cc1
inhibition at 100 µM [1]: 37%
IC50 (Prostaglandin E synthase): 889 nM
inhibition [2]: 100%
IC50 [3]: > 100000 nM

CC(=O)O[C@H]1CC[C@]2(C)C3C[C@@]4(C)C(CCC4[C@@H](C)CCCC(C)C)C[C@]3(C#N)n3c(=O)n(-c4ccccc4)c(=O)n3[C@]2(C#N)C1 (some centres undefined)
inhibition at 100 µM [1]: 14%
IC50 (Prostaglandin E synthase): 276 nM
inhibition [2]: 99%

O=C(C[C@H](c1ccc2c(c1)OCO2)N1CCN([C@H](CC(=O)c2ccc(Br)cc2)c2ccc3c(c2)OCO3)CC1)c1ccc(Br)cc1
inhibition [2]: 50%

N#Cc1cccc(C2C(=O)c3c(c(-c4ccccc4)c(-c4ccc(Sc5ccc(-c6c(-c7ccccc7)c7c(c(-c8ccccc8)c6-c6ccccc6)C(=O)N(c6cccc(C#N)c6)C7=O)cc5)cc4)c(-c4ccccc4)c3-c3ccccc3)C2=O)c1 (centres undefined)
inhibition at 100 µM [1]: 9%
IC50 (Prostaglandin E synthase): 439 nM
inhibition [2]: 100%

COc1ccc2nc3cc(Cl)ccc3c(SCC(=O)Nc3ccccc3-c3ccccc3NC(=O)CSc3c4ccc(Cl)cc4nc4ccc(OC)cc34)c2c1
inhibition [2]: 57%

Cc1cc(NS(=O)(=O)c2ccc(/N=N/c3cc(/N=N/c4ccc(S(=O)(=O)Nc5cc(C)nc(C)n5)cc4)c4c(NC(=O)C(Cl)Cl)cccc4c3OC(=O)C(Cl)Cl)cc2)nc(C)n1
inhibition [2]: 46%

CC(C)(C)c1cc(OCc2nnc3sc(-c4ccc(Cl)cc4)nn23)c(Cl)cc1OCc1nnc2sc(-c3ccc(Cl)cc3)nn12
inhibition at 100 µM [1]: 15%
IC50 (Prostaglandin E synthase): 917 nM
inhibition [2]: 75%

O=C(N/N=C\c1ccccc1/C=N\NC(=O)Nc1ccc(/N=N/c2ccccc2)cc1)Nc1ccc(/N=N/c2ccccc2)cc1
inhibition [2]: 71%

CC/C(=C(/CC)c1ccc(Oc2nc(N3CC3)nc(N3CC3)n2)cc1)c1ccc(Oc2nc(N3CC3)nc(N3CC3)n2)cc1
inhibition [2]: 46%

S=C(Nc1ccccc1)N1CCC(CCCC2CCN(C(=S)Nc3ccccc3)CC2)CC1
inhibition [2]: 53%

CC(C)(C)OC(=O)N[C@H](Cc1ccc(OCc2ccccc2)cc1)C(=O)N[C@H](CCCCNC(=O)OCc1ccccc1)C(=O)ON1C(=O)CCC1=O
inhibition [2]: 32%

CCOc1ccc(NC(=S)N2CCC(CCCC3CCN(C(=S)Nc4ccc(OCC)cc4)CC3)CC2)cc1
inhibition [2]: 59%

CCCCCCCCCCCC(=O)Nc1ccc(SSc2ccc(NC(=O)CCCCCCCCCCC)cc2)cc1
inhibition [2]: 70%
